“Also recorded” adds a separate entry of the source. Where two headings read alike, the source gives them in different places.
Experiments:
[1] = system: E. coli BL21(DE3)/pET-KHM-1; experiment: Susceptibility testing, KHM-1-producing E. coli; type: cell-based; settings: Escherichia coli
Procedure: (§1) MICs were determined via the microdilution method according to the CLSI guidelines ([38]). In brief, 5 × 10^4 bacterial cells were inoculated in 100 μl of cation-adjusted Mueller-Hinton broth (Becton, Dickinson and Company, Franklin Lakes, NJ) containing the β-lactams and appropriately diluted inhibitors. The final concentration of DMSO was maintained at 2% in the assays. The tested plates were then incubated at 35°C for 16 to 20 h. The MIC value was determined as the lowest concentration of tested β-lactams where no bacterial growth was visibly observed. The optical density at 600 nm (OD600) value was measured using a plate reader for drawing the heat maps. The FIC index value was calculated using the following equation: FIC index=MIC of β-lactam with inhibitor/MIC of β-lactam alone+MIC of inhibitor with β-lactam/MIC of inhibitor alone

[2] = Human liver microsomal stability test; type: in vitro ADME; settings: 100 nM compound, 0.1 mg protein/ml, 35 min, 37°C
Procedure: Human liver microsomal stability tests were performed by Sumika Chemical Analysis Service (Osaka, Japan). Compounds (100 nM) were incubated with human liver microsomes (0.1 mg protein/ml) for 35 min at 37°C and subjected to liquid chromatography-tandem mass spectrometry (LC-MS/MS) for quantification of the loss of the tested compounds.

E. coli DH5α/pBC-VIM-2 = experiment: Susceptibility and checkerboard testing, VIM-2-producing E. coli; type: cell-based, Escherichia coli; settings: for MIC: Escherichia coli
Procedure: as §1
Unless noted otherwise, the FIC index was defined as the lowest value among all obtained values. The synergistic effect was defined as the effect observed when the FIC index value was ≤0.5.

L1 = molecular target: T1, L1 (Stenotrophomonas maltophilia, UniProt P52700); experiment: In vitro inhibition assay, IPM hydrolysis by L1; type: biochemical; settings: even in the presence of 100 μM SFC
T1 construct: made in house
T1 sequence (P52700 34-290): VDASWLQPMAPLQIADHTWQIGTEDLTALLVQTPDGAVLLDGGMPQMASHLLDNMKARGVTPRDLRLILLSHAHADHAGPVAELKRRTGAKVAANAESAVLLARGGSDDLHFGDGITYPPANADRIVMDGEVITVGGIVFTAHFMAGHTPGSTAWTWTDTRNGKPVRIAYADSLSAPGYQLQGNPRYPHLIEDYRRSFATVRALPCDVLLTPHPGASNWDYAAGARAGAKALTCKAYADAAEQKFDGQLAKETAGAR
Procedure: MBL (10 nM) was mixed with the inhibitors and incubated for 5 min at 30°C. IPM was added to reach a concentration of 150 μM, and the velocity of IPM hydrolysis was monitored at 298 nm. The assay was performed at 30°C using 10 mM HEPES (pH 7.5) buffer containing 200 mM NaCl and 50 μg/ml bovine serum albumin (BSA) for IMP-1, NDM-1, VIM-2, and SMB-1. For SFH-1 and L1, another 10 mM HEPES (pH 7.5) buffer containing 200 mM NaCl, 20 μM ZnSO4, and 50 μg/ml BSA was used.

[3] = system: P. aeruginosa PAO1/pME-IMP-1; experiment: Susceptibility testing, IMP-1-producing P. aeruginosa PAO1; type: cell-based; settings: Pseudomonas aeruginosa
Procedure: as §1

[4] = system: NDM-type MBL-producing Enterobacteriaceae; experiment: Susceptibility testing, 14 NDM-type MBL-producing Enterobacteriaceae isolates; type: cell-based; settings: 10 μg/ml SFC, NDM-producing Enterobacteriaceae
Procedure: as §1

Q: For `Cc1oc(C)c(S(N)(=O)=O)c1C(=O)O` [SFC, 2,5-dimethyl-4-sulfamoylfuran-3-carboxylic acid], which MIC ([1]; read-out: MIC of MPM + inhibitor (8 μg/ml)) is on record?
A: 4 µg/mL

Q: And the MIC ([1]; read-out: MIC of MPM + inhibitor (32 μg/ml))?
A: 2 µg/mL

Q: And the “Stability in human liver microsomes” value [2]?
A: did not lead to structural changes; also recorded: high stability

Q: What about the “MIC ceftazidime + 2 μg/mL compound” value (E. coli DH5α/pBC-VIM-2; E. coli DH5α/pBC-VIM-2) of the same molecule?
A: 16 µg/mL

Q: And the “Reduction in CAZ MIC” value (E. coli DH5α/pBC-VIM-2; E. coli DH5α/pBC-VIM-2, 2 μg/ml compound)?
A: no reduction

Q: What about the MIC (E. coli DH5α/pBC-VIM-2; read-out: MIC of CAZ + inhibitor (8 μg/ml)) of the same molecule?
A: 4 µg/mL

Q: And the MIC (E. coli DH5α/pBC-VIM-2; read-out: MIC of CAZ + inhibitor (32 μg/ml))?
A: 2 µg/mL

Q: What about the FIC index (E. coli DH5α/pBC-VIM-2; checkerboard with CAZ, E. coli DH5α/pBC-VIM-2, lowest value) of the same molecule?
A: 0.31

Q: And the “Inhibition of IPM hydrolyzing activity of L1” value (L1)?
A: did not inhibit

Q: What about the MIC ([3]; PAO1, read-out: MIC of MPM + inhibitor (10 μg/ml)) of the same molecule?
A: 32 µg/mL

Q: What about the MIC ([3]; PAO1, read-out: MIC of MPM + inhibitor (50 μg/ml)) of the same molecule?
A: 16 µg/mL

Q: What about the “Reduction of MPM MIC50” value [4] of the same molecule?
A: 8 fold

— paper PMC7078479, “Sulfamoyl Heteroarylcarboxylic Acids as Promising Metallo-β-Lactamase Inhibitors for Controlling Bacterial Carbapenem Resistance” (mBio, 2020)
